From ChEMBL document CHEMBL1909046, “DrugMatrix in vitro pharmacology data”

How the values were obtained:
[1] = DRUGMATRIX: Leukotriene, BLT (LTB4) radioligand binding (ligand: [3H]LTB4); type: cell membranes, Membrane; conditions: u-937; Not Active = under 50% inhibition at 10 µM
[2] = target: T1, Muscarinic acetylcholine receptor M2 (Homo sapiens, UniProt P08172); type: cell membranes, CHO-K1, Membrane; conditions: cho-k1; note: in other assays of this panel Not Active means under 50% inhibition at 10 µM
T1 sequence (P08172 whole entry): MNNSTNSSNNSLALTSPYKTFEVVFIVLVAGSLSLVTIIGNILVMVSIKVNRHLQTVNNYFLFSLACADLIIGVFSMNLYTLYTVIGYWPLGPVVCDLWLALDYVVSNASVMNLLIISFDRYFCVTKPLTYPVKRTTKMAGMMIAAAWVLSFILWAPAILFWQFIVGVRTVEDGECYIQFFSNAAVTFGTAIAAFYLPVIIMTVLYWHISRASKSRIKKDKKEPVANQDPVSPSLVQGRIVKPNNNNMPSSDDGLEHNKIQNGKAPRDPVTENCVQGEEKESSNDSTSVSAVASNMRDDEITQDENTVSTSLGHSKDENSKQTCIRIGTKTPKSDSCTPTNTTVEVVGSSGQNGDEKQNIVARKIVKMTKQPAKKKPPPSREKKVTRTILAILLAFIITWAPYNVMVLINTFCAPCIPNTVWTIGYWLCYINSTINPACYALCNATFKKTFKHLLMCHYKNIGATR

[3] = target: Insulin receptor (Rattus norvegicus, UniProt P15127); type: cell membranes, Wistar, Liver, Membrane; note: in other assays of this panel Not Active means under 50% inhibition at 10 µM
Insulin receptor, sequence (P15127 27-759 limits assumed): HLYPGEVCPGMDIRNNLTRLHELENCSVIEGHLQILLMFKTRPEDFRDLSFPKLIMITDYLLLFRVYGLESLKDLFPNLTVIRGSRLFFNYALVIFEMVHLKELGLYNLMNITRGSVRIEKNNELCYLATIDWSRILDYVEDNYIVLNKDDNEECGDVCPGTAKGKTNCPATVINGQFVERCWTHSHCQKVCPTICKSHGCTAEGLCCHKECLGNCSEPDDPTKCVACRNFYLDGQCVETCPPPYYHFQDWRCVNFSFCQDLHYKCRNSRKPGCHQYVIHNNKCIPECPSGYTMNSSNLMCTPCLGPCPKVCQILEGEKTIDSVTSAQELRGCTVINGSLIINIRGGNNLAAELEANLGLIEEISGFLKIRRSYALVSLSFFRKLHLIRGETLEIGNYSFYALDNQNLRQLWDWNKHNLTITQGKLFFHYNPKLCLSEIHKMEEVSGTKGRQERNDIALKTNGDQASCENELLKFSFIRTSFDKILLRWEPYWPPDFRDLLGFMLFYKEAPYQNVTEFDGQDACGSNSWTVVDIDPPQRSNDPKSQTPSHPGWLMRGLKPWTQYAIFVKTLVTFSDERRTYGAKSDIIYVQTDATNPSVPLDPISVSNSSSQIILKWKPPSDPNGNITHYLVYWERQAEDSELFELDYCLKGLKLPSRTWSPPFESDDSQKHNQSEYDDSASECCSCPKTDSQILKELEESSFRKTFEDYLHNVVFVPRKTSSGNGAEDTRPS
Insulin receptor, sequence (P15127 764-1383 limits assumed): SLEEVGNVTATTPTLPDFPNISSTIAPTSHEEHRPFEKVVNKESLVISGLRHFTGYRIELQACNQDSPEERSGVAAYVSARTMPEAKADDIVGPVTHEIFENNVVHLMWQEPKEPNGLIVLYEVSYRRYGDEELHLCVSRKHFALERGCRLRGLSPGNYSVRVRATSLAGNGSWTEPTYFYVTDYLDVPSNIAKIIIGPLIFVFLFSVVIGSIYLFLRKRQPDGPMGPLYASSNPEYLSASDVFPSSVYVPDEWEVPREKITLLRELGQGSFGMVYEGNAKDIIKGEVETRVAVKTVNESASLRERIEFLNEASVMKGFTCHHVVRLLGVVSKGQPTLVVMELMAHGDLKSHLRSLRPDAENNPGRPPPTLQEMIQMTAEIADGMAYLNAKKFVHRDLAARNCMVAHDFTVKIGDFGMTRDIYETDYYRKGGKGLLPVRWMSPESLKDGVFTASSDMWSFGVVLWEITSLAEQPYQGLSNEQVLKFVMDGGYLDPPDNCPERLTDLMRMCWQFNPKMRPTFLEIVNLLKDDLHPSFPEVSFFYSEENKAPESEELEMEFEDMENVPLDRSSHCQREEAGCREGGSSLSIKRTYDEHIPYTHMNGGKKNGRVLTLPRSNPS

[4] = target: Cytochrome P450 3A4 (Homo sapiens, UniProt P08684); conditions: bti-tn-5b1-4; note: in other assays of this panel Not Active means under 50% inhibition at 10 µM
Cytochrome P450 3A4, sequence (P08684 whole entry): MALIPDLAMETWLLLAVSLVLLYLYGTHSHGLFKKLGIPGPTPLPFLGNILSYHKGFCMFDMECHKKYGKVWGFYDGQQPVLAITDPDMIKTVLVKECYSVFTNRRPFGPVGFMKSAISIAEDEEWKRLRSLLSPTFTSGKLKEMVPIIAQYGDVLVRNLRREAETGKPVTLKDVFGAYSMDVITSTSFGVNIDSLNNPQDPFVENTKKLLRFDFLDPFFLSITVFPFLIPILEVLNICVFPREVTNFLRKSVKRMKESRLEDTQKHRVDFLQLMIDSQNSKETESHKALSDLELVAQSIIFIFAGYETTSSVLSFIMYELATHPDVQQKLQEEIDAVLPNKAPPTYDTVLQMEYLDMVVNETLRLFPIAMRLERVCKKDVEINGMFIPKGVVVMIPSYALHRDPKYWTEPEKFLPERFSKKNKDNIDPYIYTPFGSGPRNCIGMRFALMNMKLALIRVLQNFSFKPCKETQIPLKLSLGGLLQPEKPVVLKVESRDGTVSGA

[5] = DRUGMATRIX: GABAA, Flunitrazepam, Central radioligand binding (ligand: [3H] Flunitrazepam); type: cell membranes, Rattus norvegicus, Wistar, Brain, Membrane; conditions: Not Active = under 50% inhibition at 10 µM
[6] = target: Mu-type opioid receptor (Homo sapiens, UniProt P35372); experiment: DRUGMATRIX: Opiate mu (OP3, MOP) radioligand binding (ligand: [3H] Diprenorphine); type: cell membranes, CHO-K1, Membrane; conditions: cho-k1; Not Active = under 50% inhibition at 10 µM
Mu-type opioid receptor, sequence (P35372 whole entry): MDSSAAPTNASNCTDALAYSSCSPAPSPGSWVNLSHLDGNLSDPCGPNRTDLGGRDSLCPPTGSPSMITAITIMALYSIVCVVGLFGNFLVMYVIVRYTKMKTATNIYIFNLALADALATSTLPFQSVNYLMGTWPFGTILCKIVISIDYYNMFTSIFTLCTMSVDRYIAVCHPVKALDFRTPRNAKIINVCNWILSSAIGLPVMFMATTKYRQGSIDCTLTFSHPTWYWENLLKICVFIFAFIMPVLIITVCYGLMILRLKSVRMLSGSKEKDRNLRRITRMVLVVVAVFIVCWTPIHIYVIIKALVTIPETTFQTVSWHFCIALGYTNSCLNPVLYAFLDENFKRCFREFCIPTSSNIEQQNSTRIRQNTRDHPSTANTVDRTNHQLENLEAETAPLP

[7] = DRUGMATRIX: Phosphodiesterase PDE3 enzyme inhibition (substrate: [3H]cAMP + cAMP); type: tissue-based, Homo sapiens; conditions: platelet; Not Active = under 50% inhibition at 10 µM
[8] = DRUGMATRIX: Glutamate, NMDA, Phencyclidine radioligand binding (ligand: [3H] TCP); type: cell membranes, Rattus norvegicus, Wistar, Cerebral cortex, Membrane; conditions: Not Active = under 50% inhibition at 10 µM
[9] = target: Melanocortin receptor 4 (Homo sapiens, UniProt P32245); type: cell membranes, Membrane; conditions: hek293; note: in other assays of this panel Not Active means under 50% inhibition at 10 µM
Melanocortin receptor 4, sequence (P32245 whole entry): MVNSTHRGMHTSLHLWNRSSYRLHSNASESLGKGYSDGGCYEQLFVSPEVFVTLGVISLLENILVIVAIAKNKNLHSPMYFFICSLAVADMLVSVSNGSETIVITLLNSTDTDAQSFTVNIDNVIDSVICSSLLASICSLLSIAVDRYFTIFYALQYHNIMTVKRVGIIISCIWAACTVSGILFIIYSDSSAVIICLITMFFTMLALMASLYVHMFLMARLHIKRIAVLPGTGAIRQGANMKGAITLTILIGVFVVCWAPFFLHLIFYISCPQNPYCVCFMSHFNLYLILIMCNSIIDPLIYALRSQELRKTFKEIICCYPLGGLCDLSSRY

NC[C@H]1O[C@H](O[C@H]2[C@H](O)[C@@H](O[C@H]3O[C@H](CO)[C@@H](O)[C@H](N)[C@H]3O)[C@H](N)C[C@@H]2N)[C@H](N)C[C@@H]1O [TOBRAMYCIN]
Not Active: IC50 [1] | Ki [1] | IC50 [2] | IC50 [3] | IC50 [4] | Ki [4] | IC50 [5] | Ki [5] | IC50 [6] | IC50 [7] | Ki [7] | IC50 [8] | Ki [8] | IC50 [9]

CC(=O)O[C@H]1C[C@@H]2CC[C@@H]3[C@H](CC[C@@]4(C)[C@H]3C[C@H]([N+]3(C)CCCCC3)[C@@H]4OC(C)=O)[C@@]2(C)C[C@@H]1N1CCCCC1.[Br-] [VECURONIUM BROMIDE]
Not Active: IC50 [1] | Ki [1] | IC50 [2] | IC50 [3] | IC50 [4] | Ki [4] | IC50 [5] | Ki [5] | IC50 [6] | IC50 [7] | Ki [7] | IC50 [8] | Ki [8] | IC50 [9]

COc1cc(C(=O)NS(=O)(=O)c2ccccc2C)ccc1Cc1cn(C)c2ccc(NC(=O)OC3CCCC3)cc12 [ZAFIRLUKAST]
Not Active: IC50 [1] | Ki [1] | IC50 [2] | IC50 [3] | IC50 [4] | Ki [4] | IC50 [5] | Ki [5] | IC50 [6] | IC50 [7] | Ki [7] | IC50 [8] | Ki [8] | IC50 [9]

Cc1cn([C@H]2C[C@H](N=[N+]=[N-])[C@@H](CO)O2)c(=O)[nH]c1=O [ZIDOVUDINE]
Not Active: IC50 [1] | Ki [1] | IC50 [2] | IC50 [3] | IC50 [4] | Ki [4] | IC50 [5] | Ki [5] | IC50 [6] | IC50 [7] | Ki [7] | IC50 [8] | Ki [8] | IC50 [9]
